Here are results for 16 molecules from ChEMBL document CHEMBL1145561, “Pyrrolo[1,2-b]pyridazin-2-ones as potent inhibitors of HCV NS5B polymerase” (Bioorg Med Chem Lett, 2008).

Data set [1] in a line: Oral bioavailability in cynomolgus monkey at 1 mg/kg. It is filed as ADME, organism-based, Macaca fascicularis. The conditions noted are these: in vivo.
The subject of data set [2] is Hepatitis C virus. Nature of the data set: Antiviral activity against HCV 1b in human Huh7/C24 cells after 72 hrs by replicon cell assay. It is filed as functional, organism-based, Hepacivirus hominis. The conditions noted are these: genotype 1b, Huh-7, 72 h.
Data set [3] can be described thus: Solubility at pH 7.5. The conditions noted are these: buffer. It is filed as physicochemical.
The subject of data set [4] is Cynomolgus monkey. Nature of the data set: AUC (infinity) in cynomolgus monkey at 1 mg/kg, po. It is filed as ADME, organism-based, Macaca fascicularis, Plasma. Further details: time infinity, dose 1 mg/kg, route oral. The conditions noted are these: in vivo.
A short description of data set [5]: Cytotoxicity against human Huh7/C24 cells after 72 hrs. It is filed as cell-based, Huh-7.
Data set [6] is described as follows: Clearance in cynomolgus monkey at 1 mg/kg, iv. It is filed as ADME, organism-based, Macaca fascicularis. Further details: dose 1 mg/kg, route intravenous. The settings on record: in vivo.
The subject of data set [7] is Cynomolgus monkey. Kind of data set: AUC (infinity) in cynomolgus monkey at 1 mg/kg, iv. It is filed as ADME, organism-based, Macaca fascicularis, Plasma. The arrangement: time infinity, dose 1 mg/kg, route intravenous. The settings on record: in vivo.
A short description of data set [8]: Metabolic stability in cynomolgus monkey liver microsomes assessed as half life at 1 uM. It is filed as ADME, Macaca fascicularis, Microsome.
Data set [9] is described as follows: Metabolic stability in cynomolgus monkey liver microsomes assessed as remains after 60 mins at 1 uM. It is filed as ADME, Macaca fascicularis, Microsome. The conditions noted are these: read-out: Stability.
Data set [10] concerns Hepatitis C virus. Kind of data set: Inhibition of HCV 1b NS5B RNA polymerase. Further details: species or system Hepatitis C virus subtype 1b.
Data set [11] is described as follows: (§1) Metabolic stability in human liver microsomes assessed as half life at 5 uM. It is filed as ADME, Microsome. The settings on record: liver microsomes.
A short description of data set [12]: Apparent permeability from apical to basolateral side in human Caco-2 cells at 10 uM. It is filed as ADME, cell-based.
Data set [13] in a line: Metabolic stability in human liver microsomes assessed as remains after 60 mins at 5 uM. The conditions noted are these: read-out: Stability. It is filed as ADME, Microsome.
For data set [14], the system named is Liver microsomes. Described as §1. It is filed as ADME, Microsome. The settings on record: microsomes, 5 µM.

For `CC(C)CCn1c(=O)c(C2=NS(=O)(=O)c3cc(NS(=O)(=O)C4CC4)ccc3N2)c(O)c2cccn21`, in data set [1], the bioavailability came to 4%. In addition, the response in data set [2] was half-maximal at 96 nM (EC50). For the same molecule, in [3], the solubility was above 100 µM. For the same molecule, the AUC in [4] worked out at 141 ng·h/mL; in data set [7], 3770 ng·h/mL. In addition, the CC50 at 72 h in [5] was above 33000 nM. The molecule further displayed a clearance in data set [6] of 5 mL/min/kg. The half-life at 1 µM in [8] was above 60 min. Also, the remaining at 1 h, 1 µM in data set [9] turned out to be 87%. The same molecule returned an IC50 in [10] of 160 nM. Further, the half-life at 5 µM in data set [11] turned out to be 59 min. In addition, the Papp A→B at 10 µM in data set [12] worked out at 0.8 ×10⁻⁶ cm/s.

With `CC(C)CCn1c(=O)c(C2=NS(=O)(=O)c3ccccc3N2)c(O)c2cccn21`, the bioavailability in data set [1] was found to be 63%. The same molecule displayed an EC50 in data set [2] of 5300 nM. The molecule also registered a solubility in [3] above 200 µM. Besides, the exposure (AUC) in data set [4] is 12900 ng·h/mL; in data set [7], 20500 ng·h/mL. For the same molecule, the CC50 at 72 h in data set [5] was above 100000 nM. The clearance in data set [6] was 49 mL/min/kg. Also, in data set [8], the half-life at 1 µM was determined as 11 min. The molecule further yielded an IC50 in [10] of 980 nM. Besides, the half-life at 5 µM in [11] stood at 14 min. Further, the Papp A→B at 10 µM in [12] worked out at 11 ×10⁻⁶ cm/s.

As to `CC(C)CCn1c(=O)c(C2=NS(=O)(=O)c3cc(N(C)S(C)(=O)=O)ccc3N2)c(O)c2cccn21`, in data set [1], the bioavailability amounted to 7%. This molecule had an EC50 in [2] of 190 nM. The solubility in data set [3] was above 100 µM. For the same molecule, the AUC is 79 ng·h/mL in [4] and 1060 ng·h/mL in data set [7]. In data set [5], this molecule displayed a CC50 at 72 h above 33000 nM. For the same molecule, the clearance in [6] was 16 mL/min/kg. Further, in data set [8], the half-life at 1 µM is 60 min. The remaining at 1 h, 5 µM in [13] stood at 55%. In addition, half-maximal inhibition in data set [10] (IC50) was put at 110 nM. Moreover, the half-life at 5 µM in data set [11] was above 60 min. The Papp A→B at 10 µM in [12] was found to be 4.3 ×10⁻⁶ cm/s.

`CS(=O)(=O)Nc1ccc2c(c1)S(=O)(=O)N=C(c1c(O)c3cccn3n(Cc3ccc(F)cc3)c1=O)N2` returned a bioavailability in data set [1] of 1%. The molecule further showed a solubility in data set [3] above 100 µM. The AUC was found to be 6 ng·h/mL in data set [4] and 539 ng·h/mL in data set [7]. Also, the CC50 at 72 h in [5] is above 1000 nM. In data set [6], the clearance was determined as 31 mL/min/kg. The half-life at 1 µM in data set [8] is above 60 min. For the same molecule, the remaining at 1 h, 5 µM in data set [13] turned out to be 86%. Moreover, the remaining at 1 h, 1 µM in [9] turned out to be 90%. Further, the IC50 in [10] is below 10 nM. In data set [11], the half-life at 5 µM was above 60 min. Further, the Papp A→B at 10 µM in data set [12] was 0.1 ×10⁻⁶ cm/s.

Regarding `CC(C)NCC(O)COc1cccc2ccccc12` (stereo unspecified) [PROPRANOLOL], the Papp A→B at 10 µM in data set [12] turned out to be 10 ×10⁻⁶ cm/s.

For the molecule `CC(C)CCn1c(=O)c(C2=Nc3ccc(NS(C)(=O)=O)cc3S(=O)(=O)N2)c(O)c2cccn21`, in data set [2], the EC50 was found to be 8.5 nM. The solubility in [3] was above 100 µM. The AUC in data set [4] came to 83 ng·h/mL. The molecule also registered a CC50 at 72 h in data set [5] above 1000 nM. In addition, the half-life at 1 µM in [8] was above 60 min. Moreover, the remaining at 1 h, 1 µM in [9] stood at 66%. In data set [10], the half-inhibitory concentration (IC50) was below 10 nM. Also, the half-life at 5 µM in data set [11] was determined as 42 min. In data set [12], the Papp A→B at 10 µM stood at 0.2 ×10⁻⁶ cm/s.

In turn, `O=c1c(C2=NS(=O)(=O)c3ccccc3N2)c(O)c2cccn2n1Cc1ccc(F)cc1` displayed an IC50 in data set [10] of 850 nM. In data set [14], the t1/2 was determined as 45 min.

Regarding `O=c1c(C2=NS(=O)(=O)c3cc(C4CCCS4(=O)=O)ccc3N2)c(O)c2cccn2n1Cc1ccc(F)cc1` (racemic), the EC50 in data set [2] worked out at 380 nM. Moreover, the 50% cytotoxic concentration (CC50) at 72 h in data set [5] was above 33000 nM. The remaining at 1 h, 5 µM in data set [13] worked out at 100%. Besides, the IC50 in data set [10] was 130 nM. Moreover, the half-life at 5 µM in data set [11] is above 60 min.

`CN(c1ccc2c(c1)S(=O)(=O)N=C(c1c(O)c3cccn3n(Cc3ccc(F)cc3)c1=O)N2)S(C)(=O)=O`: the bioavailability in data set [1] was found to be 6%. The molecule further had an EC50 in data set [2] of 330 nM. The molecule further registered a solubility in [3] above 60 µM. In addition, the AUC worked out at 107 ng·h/mL in [4] and 1780 ng·h/mL in data set [7]. This molecule registered a CC50 at 72 h in data set [5] above 10000 nM. In addition, in data set [6], the clearance is 9 mL/min/kg. For the same molecule, the half-life at 1 µM in data set [8] is above 60 min. Also, the remaining at 1 h, 5 µM in data set [13] turned out to be 90%. Also, in data set [9], the remaining at 1 h, 1 µM came out at 90%. Besides, in data set [10], the IC50 worked out at 130 nM. Moreover, the half-life at 5 µM in [11] is above 60 min. In addition, the Papp A→B at 10 µM in data set [12] worked out at 0.9 ×10⁻⁶ cm/s.

`CN(c1ccc2c(c1)S(=O)(=O)N=C(c1c(O)c3cccn3n(CCC(C)(C)C)c1=O)N2)S(C)(=O)=O` gave an EC50 in [2] of 120 nM. For the same molecule, the CC50 at 72 h in data set [5] is above 33000 nM. Moreover, the midpoint of inhibition in data set [10], the IC50, lay at 60 nM. Also, the half-life at 5 µM in data set [11] is 49 min.

Molecule `CC(C)CCn1nc(-c2cccs2)c(O)c(C2=Nc3ccc(NS(C)(=O)=O)cc3S(=O)(=O)N2)c1=O` gave a bioavailability in [1] of 2%. The molecule also yielded a solubility in data set [3] above 100 µM. Also, the AUC in [4] worked out at 30 ng·h/mL; in [7], 1330 ng·h/mL. For the same molecule, the Papp A→B at 10 µM in [12] stood at 0.03 ×10⁻⁶ cm/s.

On to `CC(C)(C)CCn1c(=O)c(C2=NS(=O)(=O)c3cc(NS(C)(=O)=O)ccc3N2)c(O)c2cccn21`, for which the bioavailability in data set [1] was 2%. This molecule also had an EC50 in data set [2] of 5 nM. The solubility in data set [3] is above 100 µM. Besides, the AUC in data set [4] was found to be 25 ng·h/mL; in data set [7], 1210 ng·h/mL. In data set [5], this molecule came in with a CC50 at 72 h above 1000 nM. In data set [6], this molecule had a clearance of 14 mL/min/kg. The half-life at 1 µM in [8] stood at 14 min. The same molecule returned an IC50 in data set [10] below 10 nM. Moreover, in [11], the half-life at 5 µM was determined as 10 min. Moreover, in data set [12], the Papp A→B at 10 µM turned out to be 0.7 ×10⁻⁶ cm/s.

Consider `CC(C)CCn1c(=O)c(C2=NS(=O)(=O)c3cc(NS(C)(=O)=O)ccc3N2)c(O)c2cc(F)cn21`, for which the EC50 in data set [2] amounted to 19 nM. In addition, the CC50 at 72 h in data set [5] is above 1000 nM. Besides, the remaining at 1 h, 5 µM in [13] turned out to be 78%. Also, 27 nM corresponded to half-maximal inhibition in [10] (IC50). The half-life at 5 µM in [11] was above 60 min.

For the molecule `COc1ccc2c(c1)S(=O)(=O)N=C(c1c(O)c3cccn3n(CCC(C)C)c1=O)N2`, the EC50 in [2] worked out at 17000 nM. This molecule also registered a CC50 at 72 h in data set [5] above 100000 nM. The molecule also showed an IC50 in [10] of 2200 nM.

As for `CC(C)CCn1c(=O)c(C2=NS(=O)(=O)c3cc(NS(C)(=O)=O)ccc3N2)c(O)c2cc(C#N)cn21`, in [10], the IC50 amounted to 320 nM.

The molecule `CS(=O)(=O)Nc1ccc2c(c1)S(=O)(=O)N=C(c1c(O)c3cccn3n(Cc3ccc(F)c(Cl)c3)c1=O)N2` came in with an EC50 in data set [2] of 22 nM. The same molecule gave a CC50 at 72 h in [5] above 1000 nM. The remaining at 1 h, 5 µM in [13] was determined as 102%. Further, the concentration for half-maximal inhibition (IC50) in data set [10] worked out at 25 nM. In [11], the half-life at 5 µM is above 60 min.
